Assay [1] concerns cisplatin-insensitive SK-N-FI cells. Kind of assay: Relative cell viability by MTS assay, virus or drug. Format: cell-based. How it is done: (§1) FIG. 25. Oncolytic adenovirus in combination with chemotherapy drugs. A cisplatin-insensitive clone of SK-N-FI and doxoru bicin-insensitive, etoposide-insensitive and vincristine-insensitive clones of SH-SY-5Y were established through repeated cycles of culture with increasing drug concentration. (A-D) Drug-sensitive (black lines) and drug-insensitive (grey dotted lines) neuroblastoma cells were then treated with viruses or drugs. The relative cell viability was analyzed after 4 days by MTS assay. (A) Oncolytic virus and cisplatin killing of SK-N-FI cells. (B) Oncolytic virus and etoposide killing of SH-SY-5Y cells. (C) Oncolytic virus and doxorubicin killing of SH-SY-5Y cells. (D) Oncolytic virus and vincristine killing of SH-SY-5Y cells. All data are shown as mean±SD from four independent experiments each with triplicate samples. (E) BON, NCI-H727 and QGP-1 cell lines were treated with PTD-based oncolytic adenovirus Ad5PTD(i/CgA-E1a-miR122T6) with different evg/cell in absence or presence of 10 μg/mL or 200 μg/mL cyclophosphamide. The relative cell viability was analyzed after 6 days by MTS assay.
(§2) A cisplatin-insensitive clone of the SK-N-FI neuroblastoma cell line and doxorubicin-, etoposide- and vincristine-insensitive clones of SH-SY-SY were established and treated with viruses at different evg/cell or drugs at various concentrations. The relative cell viability was analyzed by MTS assay. […] Ad5PTD(WT) also killed cisplatin-sensitive and insensitive SK-N-FI with the same efficacy (FIG. 25A).
For orientation: Tetrazolium dyes change colour on reduction, which living cells bring about.

The subject of assay [2] is cisplatin-sensitive SK-N-FI cells. The description is as above. In kind it is cell-based. The conditions noted are these: drug. As for the experimental part:
as §1, §2

The test system of a further assay is human neutrophils. In words: Transwell migration assay of neutrophils against supernatants of virus-transduced BON cells. Format: cell-based. The conditions noted are these: supernatants 48 hours post-transduction, MOI 10 FFU/cell. As for the experimental part:
(§3) BON cells were transduced with viruses Ad5PTDf35(D24-sNAP) or Ad5PTDf35(D24) at MOI 10 FFU/cell. Supernatants were harvested 48 hours post-transduction. (a) Transwell migration assay of human neutrophils isolated from 4 different individuals (2×10^5 cells/well) against harvested supernatants for 2 hours at 37° C. All samples were analyzed in triplicates and the data is represented as mean±SD of number of cells migrated. Supernatant from untransduced BON cells were used as control, (***p<0.001; n=12). (b) Granulocyte activation assay with supernatants from virus-transduced BON cells for 30 minutes at 37° C. Activation was measured in terms of ROI production, which was monitored using fluorescent dye DHR123. Supernatant from untransduced BON cells were used as control. At least 10000 events were recorded in the flow cytometer and MFI of DHR123 was recorded, (**p<0.01; *p<0.05; n=5). (c) Mice bearing BON tumors were treated with two intratumoral injections of Ad5PTDf35(D24-sNAP) or Ad5PTDf35(Δ24) (Indicated dotted arrows) and 2 mice per group were sacrificed, blood and tumor samples were drawn at different time points (indicated by solid arrows). Serum was separated from blood by centrifugation at 300 g for 10 min. Concentration of various cytokines determined by ELISA are represented in (d) TNF-α, (e) MIP2-α and (f) IL12/23 p40. […] All samples were analyzed in duplicates. […]

The test system of the next assay is neutrophils. In words: Granulocyte activation assay, ROI production (DHR123). Format: cell-based. The following applies: supernatants of transduced BON cells, 30 minutes. How it is done: as §3
For assay [3], the system named is TNF-α, MIP2-α, IL12/23 p40. Kind of assay: Serum cytokines by ELISA after intratumoral virus injections. Format: in vivo. The following applies: BON tumor-bearing mice, two intratumoral injections. As for the experimental part: as §3
(In general: ELISA stands for enzyme-linked immunosorbent assay.)

By IC50 is commonly meant the concentration that gives 50% inhibition.

Take `N.N.[Cl][Pt][Cl]` [cisplatin]: the IC50 in assay [1] (cisplatin-insensitive SK-N-FI, drug) was 100 µM; in assay [2], 8 µM. Also, the “more drug needed to kill insensitive compared to sensitive cells” value in assay [1] (cisplatin-insensitive vs cisplatin-sensitive SK-N-FI) came to 12 fold.

B1: HP-NAP: Helicobacter pylori Neutrophil Activating Protein, here secreted from virus-transduced cells (protein)
chain: MKTFEILKHLQADAIVLFMKVHNFHWNVKGTDFFNVHKATEEIYEEFADMFDDLAERIVQLGHHPLVTLSEAIKLTRVKEETKTSFHSKDIFKEILEDYKYLEKEFKELSNTAEKEGDKVTVTYADDQLAKLQKSIWMLQAHLA
On to B1, for which, in the assay with human neutrophils, the neutrophil migration result is recorded as “efficiently induce neutrophil migration”. Besides, the “neutrophil activation, release of reactive oxygen species” value in the assay on neutrophils is “activated them to release reactive oxygen species”. The “induction of serum cytokines” value in assay [3] is “induced proinflammatory cytokines (TNF-α and MIP2-α) and Th1 type cytokines (IL12/23 p40)”.

The values above are taken from patent US9017672B2, “Hexon Tat-PTD modified adenovirus and uses thereof” (Immunicum Aktiebolag, priority 2012, dated 2015).
